The text below walks through data of patent US9034891B2, “Bicyclic heterocyclic spiro compounds” (ISRAEL INSTITUTE FOR BIOLOGICAL RESEARCH, priority 2009, dated 2015).

The target in test [1] is T1, Mu Receptor (Homo sapiens, UniProt P35372). As to the kind of experiment: Functional study, agonist. The source says: (§1) It was specifically designed to provide information not only on potential limitations of drug candidates, but also for off-target activity identification. […] In a further extension of this study, functional studies were done on most of these receptors.
T1 sequence (P35372 whole entry): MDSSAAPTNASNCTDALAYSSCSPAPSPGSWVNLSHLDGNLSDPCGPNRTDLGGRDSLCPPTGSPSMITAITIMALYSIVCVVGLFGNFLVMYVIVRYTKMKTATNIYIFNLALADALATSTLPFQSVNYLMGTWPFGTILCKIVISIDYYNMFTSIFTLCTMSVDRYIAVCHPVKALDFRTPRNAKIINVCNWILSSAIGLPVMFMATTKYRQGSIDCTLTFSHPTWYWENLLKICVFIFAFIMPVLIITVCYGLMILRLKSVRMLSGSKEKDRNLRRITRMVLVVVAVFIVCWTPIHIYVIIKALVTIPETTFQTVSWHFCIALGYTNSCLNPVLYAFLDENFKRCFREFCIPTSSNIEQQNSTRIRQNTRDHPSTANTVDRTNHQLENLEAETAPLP

Test [2] deals with T2, 5HT2B Receptor (Homo sapiens, UniProt P41595). The test can be described thus: Functional study, agonist. Conditions: 100 μM.
T2 sequence (P41595 whole entry): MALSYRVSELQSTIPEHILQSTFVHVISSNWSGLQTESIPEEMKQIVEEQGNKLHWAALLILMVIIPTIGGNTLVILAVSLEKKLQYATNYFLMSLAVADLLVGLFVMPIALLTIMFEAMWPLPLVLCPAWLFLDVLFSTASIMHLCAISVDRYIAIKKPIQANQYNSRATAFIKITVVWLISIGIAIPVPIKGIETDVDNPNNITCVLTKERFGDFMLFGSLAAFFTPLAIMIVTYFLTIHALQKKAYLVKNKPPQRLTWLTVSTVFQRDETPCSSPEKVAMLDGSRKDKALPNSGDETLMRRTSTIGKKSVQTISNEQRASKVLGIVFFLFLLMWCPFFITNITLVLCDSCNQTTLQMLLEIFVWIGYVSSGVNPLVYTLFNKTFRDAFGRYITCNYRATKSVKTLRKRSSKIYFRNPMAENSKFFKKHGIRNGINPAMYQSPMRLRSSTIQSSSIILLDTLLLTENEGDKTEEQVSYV
Source text: as §1

Test [3] has as its target T3, M1 mAChR (Homo sapiens, UniProt P11229).
T3 sequence (P11229 1-460): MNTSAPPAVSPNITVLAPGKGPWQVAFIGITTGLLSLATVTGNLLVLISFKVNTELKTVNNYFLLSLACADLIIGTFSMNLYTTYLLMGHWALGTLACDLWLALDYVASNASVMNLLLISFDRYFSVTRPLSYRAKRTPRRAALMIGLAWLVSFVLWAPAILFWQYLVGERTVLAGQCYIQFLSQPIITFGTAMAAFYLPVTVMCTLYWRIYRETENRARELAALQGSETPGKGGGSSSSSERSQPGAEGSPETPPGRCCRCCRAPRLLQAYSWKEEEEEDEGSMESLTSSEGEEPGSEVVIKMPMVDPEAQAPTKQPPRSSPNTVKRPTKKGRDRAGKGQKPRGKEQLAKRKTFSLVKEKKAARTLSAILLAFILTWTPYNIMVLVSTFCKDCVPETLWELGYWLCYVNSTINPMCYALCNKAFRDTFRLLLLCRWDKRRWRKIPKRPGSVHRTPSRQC
The test can be described thus: Intracellular Ca2+ mobilization (Fluo-4 NW) in cells stably transfected with M1 mAChR. Set-up: expressed in transfected cells. The format is cell-based. Conditions: 100 μM; mobilization of intracellular Ca ions. The source says: On the day of experiment, cells were fully confluent.
To evaluate selectivity for a subtype of mAChR, in particular the M1 mAChR vs. M3 and MS mAChR, the assays were calibrated using ligands that have a combined activity, e.g. M1 agonistic and M3 antagonistic or M1 agonistic and MS antagonistic profiles, respectively. This can eliminate effects due to different receptor reserves in cell-based assays.

For test [4], the target named is T4, 5HT2C Receptor (Homo sapiens, UniProt P28335). As to the kind of experiment: Functional study, agonist or antagonist.
T4 sequence (P28335 33-458): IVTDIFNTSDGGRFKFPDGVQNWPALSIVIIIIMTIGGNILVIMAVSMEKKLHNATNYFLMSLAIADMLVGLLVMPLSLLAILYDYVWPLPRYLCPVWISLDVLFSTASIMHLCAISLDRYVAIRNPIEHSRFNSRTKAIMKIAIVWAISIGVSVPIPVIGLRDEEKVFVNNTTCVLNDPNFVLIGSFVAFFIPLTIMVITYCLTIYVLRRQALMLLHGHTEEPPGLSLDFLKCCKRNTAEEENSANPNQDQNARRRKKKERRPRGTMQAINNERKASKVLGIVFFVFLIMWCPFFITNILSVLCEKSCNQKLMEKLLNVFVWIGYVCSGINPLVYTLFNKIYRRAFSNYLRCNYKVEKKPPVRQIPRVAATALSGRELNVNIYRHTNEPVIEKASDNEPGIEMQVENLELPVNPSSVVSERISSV
Source text: as §1

Test [5] deals with T5, Histamine 2 Receptor (Homo sapiens, UniProt P25021). As to the kind of experiment: Functional study, agonist or antagonist.
T5 sequence (P25021 whole entry): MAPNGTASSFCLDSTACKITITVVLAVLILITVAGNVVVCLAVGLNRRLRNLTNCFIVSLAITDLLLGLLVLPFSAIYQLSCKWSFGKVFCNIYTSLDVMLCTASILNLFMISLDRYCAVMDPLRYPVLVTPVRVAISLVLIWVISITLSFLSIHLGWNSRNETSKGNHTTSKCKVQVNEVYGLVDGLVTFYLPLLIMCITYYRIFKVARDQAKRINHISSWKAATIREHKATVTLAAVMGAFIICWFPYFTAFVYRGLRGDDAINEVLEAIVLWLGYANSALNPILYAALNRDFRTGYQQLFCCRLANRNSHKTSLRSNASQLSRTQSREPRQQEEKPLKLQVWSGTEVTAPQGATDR
Source text: as §1

The target in test [6] is T3, M1 mAChR.
In test [7] the target is T4, 5HT2C Receptor. As to the kind of experiment: High-throughput profiling, binding at 10 μM.
Source text: as §1

Test [8] addresses T1, Mu Receptor. As to the kind of experiment: High-throughput profiling, binding at 10 μM.
Source text: as §1

The target of a further test is M2 mAChR (Homo sapiens, UniProt P08172). As to the kind of experiment: High-throughput profiling, binding at 10 μM.
M2 mAChR, sequence (P08172 whole entry): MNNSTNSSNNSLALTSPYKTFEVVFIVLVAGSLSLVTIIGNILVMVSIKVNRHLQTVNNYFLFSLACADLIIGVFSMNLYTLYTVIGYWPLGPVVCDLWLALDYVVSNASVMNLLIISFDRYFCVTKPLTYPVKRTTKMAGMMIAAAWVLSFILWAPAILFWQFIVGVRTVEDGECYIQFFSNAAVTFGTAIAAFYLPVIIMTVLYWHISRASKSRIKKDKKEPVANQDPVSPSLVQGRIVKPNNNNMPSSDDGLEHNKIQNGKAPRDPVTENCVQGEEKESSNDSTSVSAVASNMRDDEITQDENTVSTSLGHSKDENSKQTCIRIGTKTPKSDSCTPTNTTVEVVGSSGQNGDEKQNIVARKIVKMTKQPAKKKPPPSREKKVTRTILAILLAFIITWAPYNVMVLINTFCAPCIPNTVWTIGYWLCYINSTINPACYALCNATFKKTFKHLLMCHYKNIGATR
Source text: as §1

Another test concerns Sigma Receptor. The test can be described thus: High-throughput profiling, binding at 10 μM.
Source text: as §1

The next test has as its target 5HT2A receptor (Homo sapiens, UniProt P28223). As to the kind of experiment: High-throughput profiling, binding at 10 μM.
Source text: as §1

For test [9], the target named is T5, Histamine 2 Receptor. The test can be described thus: High-throughput profiling, binding at 10 μM.
Source text: as §1

The target of test [10] is T2, 5HT2B Receptor. As to the kind of experiment: High-throughput profiling, binding at 10 μM.
Source text: as §1

The next test concerns the target 5HT Transporter (Homo sapiens, UniProt P31645). As to the kind of experiment: High-throughput profiling, binding at 10 μM.
Source text: as §1

For a further test, the system named is ERK 1/2 phosphorylation. The test can be described thus: Phospho-p44/42 MAPK (ERK 1/2) detection in PC12M1 cells. The format is cell-based, rat. Conditions: 3 hours.
For the next test, the target named is α-4β2 nicotinic receptor (Homo sapiens, UniProt P17787+P43681). The test can be described thus: Binding to α4β2 nicotinic receptor. The following applies: 0.1 nM-10 μM.
α-4β2 nicotinic receptor, sequence (P43681 29-627 limits assumed): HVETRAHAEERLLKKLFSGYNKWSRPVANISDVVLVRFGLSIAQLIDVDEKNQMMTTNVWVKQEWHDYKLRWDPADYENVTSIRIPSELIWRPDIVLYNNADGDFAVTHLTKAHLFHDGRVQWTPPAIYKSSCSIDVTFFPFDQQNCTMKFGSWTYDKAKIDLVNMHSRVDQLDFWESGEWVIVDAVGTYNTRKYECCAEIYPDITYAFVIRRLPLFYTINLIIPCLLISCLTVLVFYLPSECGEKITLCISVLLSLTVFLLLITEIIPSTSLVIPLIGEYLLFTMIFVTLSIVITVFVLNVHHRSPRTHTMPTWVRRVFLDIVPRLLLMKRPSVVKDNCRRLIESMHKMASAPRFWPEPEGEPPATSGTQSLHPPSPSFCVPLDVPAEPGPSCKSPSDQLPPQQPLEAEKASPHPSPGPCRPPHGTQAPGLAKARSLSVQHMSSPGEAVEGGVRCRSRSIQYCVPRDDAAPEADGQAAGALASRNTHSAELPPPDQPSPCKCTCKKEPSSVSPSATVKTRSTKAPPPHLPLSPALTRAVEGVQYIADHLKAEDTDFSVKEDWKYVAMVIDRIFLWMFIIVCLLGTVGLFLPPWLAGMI
α-4β2 nicotinic receptor, sequence (P17787 26-502): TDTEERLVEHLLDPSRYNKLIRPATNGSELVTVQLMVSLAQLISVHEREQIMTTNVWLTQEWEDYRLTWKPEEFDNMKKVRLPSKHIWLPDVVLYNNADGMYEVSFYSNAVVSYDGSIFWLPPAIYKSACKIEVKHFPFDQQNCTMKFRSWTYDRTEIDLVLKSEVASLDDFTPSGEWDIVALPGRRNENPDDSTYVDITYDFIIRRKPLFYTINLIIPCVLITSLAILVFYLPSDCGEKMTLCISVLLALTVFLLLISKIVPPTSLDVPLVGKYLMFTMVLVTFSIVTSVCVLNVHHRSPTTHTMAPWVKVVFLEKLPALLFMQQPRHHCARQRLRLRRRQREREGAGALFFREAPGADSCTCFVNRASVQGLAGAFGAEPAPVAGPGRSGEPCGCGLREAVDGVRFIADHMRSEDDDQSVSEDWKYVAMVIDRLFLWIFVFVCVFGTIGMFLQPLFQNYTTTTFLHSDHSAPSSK
Source text: as §1

The target of another test is α7 nicotinic receptor (Homo sapiens, UniProt P36544). As to the kind of experiment: Binding to α7 nicotinic receptor. The following applies: 0.1 nM-10 μM.
α7 nicotinic receptor, sequence (P36544 23-502): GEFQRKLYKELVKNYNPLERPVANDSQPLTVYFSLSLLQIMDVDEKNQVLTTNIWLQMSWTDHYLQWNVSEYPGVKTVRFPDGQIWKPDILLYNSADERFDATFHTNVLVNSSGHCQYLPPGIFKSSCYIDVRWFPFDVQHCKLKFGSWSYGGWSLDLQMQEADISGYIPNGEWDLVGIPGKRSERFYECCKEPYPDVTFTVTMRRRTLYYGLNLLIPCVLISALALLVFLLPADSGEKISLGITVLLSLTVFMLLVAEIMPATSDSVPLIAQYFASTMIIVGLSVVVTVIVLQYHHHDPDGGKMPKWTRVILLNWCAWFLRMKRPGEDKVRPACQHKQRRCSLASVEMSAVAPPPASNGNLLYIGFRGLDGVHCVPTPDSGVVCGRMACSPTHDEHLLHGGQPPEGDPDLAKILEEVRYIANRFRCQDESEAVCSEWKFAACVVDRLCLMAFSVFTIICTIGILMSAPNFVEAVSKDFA
Source text: as §1

The term EC50 denotes the concentration giving half of the maximal effect. Read a low EC50 as an effect from little substance.

Each structure is given as a SMILES string. “Also recorded” adds a separate entry of the source.

5HT2A receptor, sequence (P28223 whole entry): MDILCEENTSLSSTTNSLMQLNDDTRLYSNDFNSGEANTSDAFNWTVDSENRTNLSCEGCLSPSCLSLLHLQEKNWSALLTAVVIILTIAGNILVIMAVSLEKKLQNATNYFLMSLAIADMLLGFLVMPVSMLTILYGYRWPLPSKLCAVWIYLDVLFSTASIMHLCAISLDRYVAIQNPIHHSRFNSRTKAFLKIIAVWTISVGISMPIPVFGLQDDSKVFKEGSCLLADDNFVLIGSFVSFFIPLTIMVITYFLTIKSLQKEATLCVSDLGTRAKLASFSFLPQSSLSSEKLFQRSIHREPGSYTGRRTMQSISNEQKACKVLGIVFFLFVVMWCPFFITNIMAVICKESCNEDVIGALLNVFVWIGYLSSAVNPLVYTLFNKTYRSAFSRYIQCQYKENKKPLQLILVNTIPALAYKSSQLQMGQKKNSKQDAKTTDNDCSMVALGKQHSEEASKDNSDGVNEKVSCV
5HT Transporter, sequence (P31645 whole entry, species assumed): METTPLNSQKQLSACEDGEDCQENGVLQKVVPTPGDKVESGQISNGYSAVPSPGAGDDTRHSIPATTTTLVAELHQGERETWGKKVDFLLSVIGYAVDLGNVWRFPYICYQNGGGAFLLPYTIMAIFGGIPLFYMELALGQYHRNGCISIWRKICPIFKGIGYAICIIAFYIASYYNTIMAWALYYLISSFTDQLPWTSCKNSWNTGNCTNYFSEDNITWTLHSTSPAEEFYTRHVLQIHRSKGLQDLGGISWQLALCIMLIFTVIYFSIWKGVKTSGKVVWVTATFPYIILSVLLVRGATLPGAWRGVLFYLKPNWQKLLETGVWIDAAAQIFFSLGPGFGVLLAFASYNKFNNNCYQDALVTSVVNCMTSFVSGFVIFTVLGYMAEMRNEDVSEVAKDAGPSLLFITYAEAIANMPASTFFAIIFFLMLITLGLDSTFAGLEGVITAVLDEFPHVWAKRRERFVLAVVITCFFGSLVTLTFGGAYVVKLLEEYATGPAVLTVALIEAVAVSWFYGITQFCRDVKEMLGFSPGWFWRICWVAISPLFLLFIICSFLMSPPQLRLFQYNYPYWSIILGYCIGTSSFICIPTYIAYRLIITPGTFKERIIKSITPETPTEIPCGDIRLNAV

`C[C@@H]1SC2(CCN(C)CC2)CN1C(=O)CCc1c[nH]c2ccccc12` (single isomer, unassigned) [AF710B]: the concentration for a half-maximal effect (EC50) on Mu Receptor [1] is 13 µM. In addition, the “partial agonist efficacy on 5HT2B receptor” value on 5HT2B Receptor [2] is recorded as 17%. For the same compound, the “M1 agonist at 100 μM vs. carbachol (full muscarinic agonist, 100%)” value at M1 mAChR [3] is recorded as 66%. On 5HT2C Receptor [4], the “agonist or antagonist activity on 5HT2C receptor” value is “inactive”. Further, at Histamine 2 Receptor [5], the “agonist or antagonist activity on histamine 2 receptor” value was “inactive”. For the same compound, at M1 mAChR [6], the “effect of brucine pre-incubation on elevation of intracellular calcium ions” value was “no such effect; also recorded: slight inhibition”. For the same compound, the “binding to 5HT2C Receptor” value at 5HT2C Receptor [7] is “binds”. In addition, the “binding to Mu Receptor” value on Mu Receptor [8] is reported as “binds”. Moreover, the “binding to M2 mAChR” value at M2 mAChR is “binds”. Further, the “binding to Sigma Receptor” value in the test with Sigma Receptor is on record as “binds”. The “binding to 5 HT2A Receptor” value at 5HT2A receptor is recorded as “binds”. Besides, the “binding to Histamine 2 Receptor” value on Histamine 2 Receptor [9] is reported as “binds”. The “binding to 5HT2B Receptor” value at 5HT2B Receptor [10] was “binds”. Moreover, the “binding to 5HT Transporter” value at 5HT Transporter is reported as “binds”. Also, in the test on ERK 1/2 phosphorylation, the “phospho-ERK1/2, compound alone” value is “does not increase”. Also, the “binding to α-4β2 nicotinic receptor” value on α-4β2 nicotinic receptor is listed as “does not bind”. Further, the “binding to α7 nicotinic receptor” value on α7 nicotinic receptor is “does not bind”.
